By EC50 is commonly meant the concentration giving half of the maximal effect. For orientation: IC50 means the concentration needed to halve the response being measured. The low end stands for greater potency, the high end for weaker potency.

Experiment [1] deals with LPS-induced TNFα in monocyte-derived macrophages. The experiment can be described thus: MdM assay: LPS-triggered TNFα (ELISA). The settings on record: Macrophage; human MdM; LPS 200 ng/mL; supernatant after 20 h; inhibition of TNFα; read-out: TNFα EC50. It counts as cell-based, human. In outline:
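TNFα secretion quantified by streptavidin-HRP/luminol sandwich ELISA in supernatants collected 20 h after LPS (200 ng/mL). Macrophages derived from magnetically isolated human CD14+ monocytes were used at day 10, with compound added 1 h before LPS; final DMSO 0.2%.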
(In an ELISA, binding on a coated surface is turned into a signal by an enzyme label.)

A further experiment has as its target T1, SIK1 (Homo sapiens, UniProt P57059).
T1 construct: purchased Carna Biosciences 02-131
Kind of experiment: ADP-Glo kinase assay, SIK1. It is filed as biochemical. The method, boiled down: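 Steps: add enzyme–substrate mixture; start with diluted ATP; incubate RT 120 min; add ADP-Glo Reagent to terminate and remove unconsumed ATP, 40 min; add detection reagent, 30 min; read luminescence. DMSO at 1% and staurosporine at 10 μM (final) define assay windows.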

T1 sequence (P57059 whole entry): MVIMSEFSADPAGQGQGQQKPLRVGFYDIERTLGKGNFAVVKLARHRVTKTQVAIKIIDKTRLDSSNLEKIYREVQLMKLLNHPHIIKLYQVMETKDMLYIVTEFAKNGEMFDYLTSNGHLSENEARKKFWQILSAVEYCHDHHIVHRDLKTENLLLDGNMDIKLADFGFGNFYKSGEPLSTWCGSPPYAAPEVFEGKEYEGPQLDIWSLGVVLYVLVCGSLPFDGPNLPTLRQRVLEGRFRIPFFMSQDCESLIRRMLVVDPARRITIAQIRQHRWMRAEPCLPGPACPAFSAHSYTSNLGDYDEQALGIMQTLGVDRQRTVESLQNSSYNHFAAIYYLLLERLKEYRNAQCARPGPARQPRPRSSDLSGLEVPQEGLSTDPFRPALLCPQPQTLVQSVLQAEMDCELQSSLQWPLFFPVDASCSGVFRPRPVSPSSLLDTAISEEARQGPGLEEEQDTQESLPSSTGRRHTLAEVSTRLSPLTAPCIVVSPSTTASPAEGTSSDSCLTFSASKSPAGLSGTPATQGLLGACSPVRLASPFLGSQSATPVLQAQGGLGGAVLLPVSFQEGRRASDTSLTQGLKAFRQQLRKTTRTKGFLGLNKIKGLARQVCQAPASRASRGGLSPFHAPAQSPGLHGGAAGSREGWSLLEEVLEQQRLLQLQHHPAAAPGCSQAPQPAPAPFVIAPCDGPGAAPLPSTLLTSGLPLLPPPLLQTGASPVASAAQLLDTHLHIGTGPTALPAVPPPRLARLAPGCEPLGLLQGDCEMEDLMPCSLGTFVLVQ

Consider `COc1cc(-c2cnn3cc(C(C)(C)COS(C)(=O)=O)ccc23)cc(OC(F)F)c1C(=O)N[C@@H]1C[C@@H]1F` [Cpd 267, [2-[3-[3-(difluoromethoxy)-4-[[(1R,2S)-2-fluorocyclopropyl]carbamoyl]-5-methoxy-phenyl]pyrazolo[1,5-a]pyridin-6-yl]-2-methyl-propyl]methanesulfonate], for which the half-maximal effective concentration (EC50) in experiment [1] fell in the range of 100 to 1000 nM. Further, the concentration for half-maximal inhibition (IC50) at SIK1 is over 500 nM.
The matching figures for `COc1cc(-c2cnn3cc(C(C)(C)CN4CCOCC4)ccc23)cc(OC(F)F)c1C(=O)N[C@@H]1C[C@@H]1F` [Cpd 269, 2-(difluoromethoxy)-4-[6-(1,1-dimethyl-2-morpholino-ethyl)pyrazolo[1,5-a]pyridin-3-yl]-N-[(1R,2S)-2-fluorocyclopropyl]-6-methoxy-benzamide]: 100 to 1000 nM and over 500 nM.

The record behind these values is patent US12391679B2, “Benzamide-substituted bicyclic imidazo- and pyrazolo-fused -pyridine, -pyrimide, and -pyridazine compounds for treatment of inflammatory diseases” (ONCO3R Therapeutics BV, priority 2019, dated 2025).
